Experimental data as given in patent US7786141B2 (Vertex Pharmaceuticals Incorporated, priority 2004, dated 2010).

Key:
M1 muscarinic receptor = molecular target: T1, M1 muscarinic receptor (Homo sapiens, UniProt P11229); experiment: Functional mobilization of intracellular calcium (FLIPR) in M1-CHO cells; assay type: cell-based; conditions: Table 4; for Emax: 100% efficacy is the maximum response obtained with the Carbachol control; for M1 Activity: M1 receptor, calcium mobilization (FLIPR)
T1 construct: expressed in transfected cells; host or cells: CHO (M1-CHO)
T1 sequence (P11229 1-460): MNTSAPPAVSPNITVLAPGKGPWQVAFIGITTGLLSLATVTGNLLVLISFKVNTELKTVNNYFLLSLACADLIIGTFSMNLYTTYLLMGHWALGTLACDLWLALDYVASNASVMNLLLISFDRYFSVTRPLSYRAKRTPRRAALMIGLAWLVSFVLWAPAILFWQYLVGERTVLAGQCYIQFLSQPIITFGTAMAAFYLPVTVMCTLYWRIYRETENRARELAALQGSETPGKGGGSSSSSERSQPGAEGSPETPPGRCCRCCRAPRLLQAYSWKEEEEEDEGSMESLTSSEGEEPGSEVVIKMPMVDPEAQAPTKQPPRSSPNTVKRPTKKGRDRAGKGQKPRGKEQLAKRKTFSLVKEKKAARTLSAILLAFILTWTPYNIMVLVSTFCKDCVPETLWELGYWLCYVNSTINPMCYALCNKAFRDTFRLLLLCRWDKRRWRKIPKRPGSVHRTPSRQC
In short: (§1)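 Measured via Fluo-3 fluorescence on a FLIPR, CHO cells with either muscarinic subtype received compound in 0.5% DMSO. Antagonism was assessed after 15 min pre-incubation followed by carbachol at each subtype's EC80; agonism from compound addition alone.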

M4 muscarinic receptor = molecular target: T2, M4 muscarinic receptor (Homo sapiens, UniProt P08173); experiment: Functional mobilization of intracellular calcium (FLIPR) in M4-CHO cells; assay type: cell-based; conditions: Table 4; for Emax: 100% efficacy is the maximum response obtained with the Carbachol control; for M4 Activity: M4 receptor, calcium mobilization (FLIPR)
T2 construct: expressed in transfected cells; host or cells: CHO (M4-CHO)
T2 sequence (P08173 1-479): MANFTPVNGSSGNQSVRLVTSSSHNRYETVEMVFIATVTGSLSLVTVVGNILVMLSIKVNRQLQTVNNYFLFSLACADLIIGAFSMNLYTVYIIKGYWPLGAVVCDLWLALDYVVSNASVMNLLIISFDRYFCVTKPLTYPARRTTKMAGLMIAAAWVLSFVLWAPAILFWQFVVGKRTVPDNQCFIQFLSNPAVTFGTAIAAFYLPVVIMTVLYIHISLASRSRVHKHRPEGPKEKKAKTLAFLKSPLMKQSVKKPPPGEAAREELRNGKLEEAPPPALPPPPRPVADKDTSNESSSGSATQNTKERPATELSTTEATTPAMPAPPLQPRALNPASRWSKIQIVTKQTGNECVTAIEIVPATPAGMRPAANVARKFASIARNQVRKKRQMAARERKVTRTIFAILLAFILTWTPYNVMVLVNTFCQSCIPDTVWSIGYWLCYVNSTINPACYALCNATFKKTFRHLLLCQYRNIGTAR
In short: as §1

| SMILES | Emax (M1 muscarinic receptor) | M1 Activity (M1 muscarinic receptor) | Emax (M4 muscarinic receptor) | M4 Activity (M4 muscarinic receptor) |
| --- | --- | --- | --- | --- |
| CC(=O)CN1CC2(CCN(C[C@H]3C[C@H]4C=CC3C4)CC2)c2cc(F)ccc21 [compound 877] | 25 to 100% | xxx (activity was measured to be less than 2.0 μM) | 25 to 100% | xxx (activity was measured to be less than 2.0 μM) |
| CC(=O)CN1CC2(CCN([C@@H]3C[C@H]4CCC3C4)CC2)c2cc(C)ccc21 [compound 878] | 25 to 100% | xxx (activity was measured to be less than 2.0 μM) | 25 to 100% | xxx (activity was measured to be less than 2.0 μM) |
| CCOC(=O)N1CCC(N2CCC3(CC2)CN(c2nccs2)c2ccc(F)cc23)CC1 [compound 879] | 25 to 100% | xxx (activity was measured to be less than 2.0 μM) | 25 to 100% | xxx (activity was measured to be less than 2.0 μM) |
| CC(=O)N1CCC(N2CCC3(CC2)CN(C(=O)N(C)C)c2ccc(F)cc23)CC1 [compound 880] | < 25% | x (activity was measured to be greater than 5.0 μM) | < 25% | x (activity was measured to be greater than 5.0 μM) |
| CC(=O)N[C@H]1CCC2(CCN(C3CCCCCC3)CC2)c2ccccc21 [compound 881] | 25 to 100% | xxx (activity was measured to be less than 2.0 μM) | 25 to 100% | xxx (activity was measured to be less than 2.0 μM) |
| CC(=O)N[C@@H]1CCC2(CCN(CC3CCCCC3)CC2)c2ccccc21 [compound 882] | < 25% | x (activity was measured to be greater than 5.0 μM) | < 25% | x (activity was measured to be greater than 5.0 μM) |
| COCCN1CC2(CCN(C3CC4CCC(C4)C3)CC2)c2cc(F)ccc21 (stereo not shown) [compound 884] | 25 to 100% | xxx (activity was measured to be less than 2.0 μM) | 25 to 100% | xxx (activity was measured to be less than 2.0 μM) |
| CN(C)C(=O)N1CC2(CCN(C3CCN(C(=O)OCC(F)F)CC3)CC2)c2cc(F)ccc21 [compound 885] | 25 to 100% | xxx (activity was measured to be less than 2.0 μM) | 25 to 100% | xxx (activity was measured to be less than 2.0 μM) |
| CC#CCOC(=O)N1CC[C@@H](CN2CCC3(CC2)CN(C(C)=O)c2ccccc23)C1 [compound 886] | 25 to 100% | xxx (activity was measured to be less than 2.0 μM) | 25 to 100% | xxx (activity was measured to be less than 2.0 μM) |
| CN(C)C(=O)N1CC2(CCN(C3CCN(C(=O)c4ccccc4F)CC3)CC2)c2cc(F)ccc21 [compound 887] | 25 to 100% | xx (activity was measured to be between 2.0 μM and 5.0 μM) | < 25% | x (activity was measured to be greater than 5.0 μM) |
| CC(=O)NC1CCC2(CCN(CCC3CCCN(C(=O)N(C)C)C3)CC2)c2ccccc21 (stereo not shown) [compound 888] | 25 to 100% | xxx (activity was measured to be less than 2.0 μM) | < 25% | x (activity was measured to be greater than 5.0 μM) |
| O=C(N[C@H]1CCC2(CCN(CC3CCCCC3)CC2)c2ccccc21)C1CC1 [compound 889] | 25 to 100% | xxx (activity was measured to be less than 2.0 μM) | 25 to 100% | xxx (activity was measured to be less than 2.0 μM) |
| CCOC(=O)N1CCC(N2CCC3(CC2)CN(c2ccsc2)c2ccc(F)cc23)CC1 [compound 891] | 25 to 100% | xxx (activity was measured to be less than 2.0 μM) | 25 to 100% | xxx (activity was measured to be less than 2.0 μM) |
| CCC(C)(C)C1CCC(N2CCC3(CC2)CN(C(C)=O)c2ccc(F)cc23)CC1 (stereo not shown) [compound 892] | < 25% | x (activity was measured to be greater than 5.0 μM) | < 25% | x (activity was measured to be greater than 5.0 μM) |
| CC(=O)N1CC2(CCN(C3CCN(c4cncc(CC(C)C)n4)CC3)CC2)c2ccccc21 [compound 893] | < 25% | x (activity was measured to be greater than 5.0 μM) | < 25% | x (activity was measured to be greater than 5.0 μM) |
| CC(=O)N1CC2(CCN(C3CCN(c4nccs4)CC3)CC2)c2ccccc21 [compound 894] | 25 to 100% | x (activity was measured to be greater than 5.0 μM) | < 25% | x (activity was measured to be greater than 5.0 μM) |
| CN(C)C(=O)N1CC2(CCN(C3CCN(c4cnccn4)CC3)CC2)c2cc(F)ccc21 [compound 895] | 25 to 100% | xxx (activity was measured to be less than 2.0 μM) | 25 to 100% | xxx (activity was measured to be less than 2.0 μM) |
| CCOC(=O)N1CCC(N2CCC3(CC2)CN(c2ccc(OC)nn2)c2ccc(F)cc23)CC1 [compound 896] | 25 to 100% | xxx (activity was measured to be less than 2.0 μM) | 25 to 100% | xxx (activity was measured to be less than 2.0 μM) |
| CCOC(=O)N1C2CCC1CC(N1CCC3(CC1)CN(C(C)=O)c1c(F)cc(F)cc13)C2 (stereo not shown) [compound 897] | 25 to 100% | xxx (activity was measured to be less than 2.0 μM) | 25 to 100% | xxx (activity was measured to be less than 2.0 μM) |
| Cc1cc(C(=O)N2CCC(N3CCC4(CC3)CN(C(=O)N(C)C)c3ccc(F)cc34)CC2)nn1C [compound 898] | < 25% | x (activity was measured to be greater than 5.0 μM) | < 25% | x (activity was measured to be greater than 5.0 μM) |
| CN(C)C(=O)N1CC2(CCN(C3CCN(C(=O)c4ccoc4)CC3)CC2)c2cc(F)ccc21 [compound 900] | < 25% | xx (activity was measured to be between 2.0 μM and 5.0 μM) | < 25% | x (activity was measured to be greater than 5.0 μM) |
| O=C1CC2(CCN([C@@H]3C[C@H]4CC[C@@H]3C4)CC2)c2ccc(Cl)cc21 [compound 901] | 25 to 100% | xx (activity was measured to be between 2.0 μM and 5.0 μM) | 25 to 100% | xx (activity was measured to be between 2.0 μM and 5.0 μM) |
| CCOC(=O)N1CC2(CCN(C3CC4CCC3C4)CC2)c2cc(C)ccc21 (stereo not shown) [compound 902] | 25 to 100% | x (activity was measured to be greater than 5.0 μM) | < 25% | x (activity was measured to be greater than 5.0 μM) |
| CCOC(=O)N1CCC(N2CCC3(CC2)CN(C(=O)N2CCOCC2)c2ccccc23)CC1 [compound 903] | 25 to 100% | xx (activity was measured to be between 2.0 μM and 5.0 μM) | 25 to 100% | xxx (activity was measured to be less than 2.0 μM) |
| O=C(O)C1CC2(CCN(C3CC4CCC3C4)CC2)c2ccccc21 (stereo not shown) [compound 904] | < 25% | x (activity was measured to be greater than 5.0 μM) | < 25% | x (activity was measured to be greater than 5.0 μM) |
